Values quoted from earlier work as cited in US20150099751A1, “IN SITU GEL LOADED WITH PHOSPHODIESTERASE TYPE V INHIBITORS NANOEMULSION” (KING ABDULAZIZ UNIVERSITY, priority 2013, published 2015).

Legend:
[1] = test system: isolated human corpus cavernosum; conditions: at the recommended doses
[2] = test system: male lower urinary tract syndrome (LUTS); conditions: after 12 weeks of treatment
[3] = administration by mouth (orally)

bioavailability [3]: approximately 40%
Compound: CCCc1nn(C)c2c(=O)[nH]c(-c3cc(S(=O)(=O)N4CCN(C)CC4)ccc3OCC)nc12 [Sildenafil, 1[4ethoxy3(6.7dihydro1methyl7oxo3propyl1Hpyrazolo [4,3d]pyrimidin5yl)phenylsulfonyl]4methylpiperazine]
direct relaxant effect on the isolated human corpus cavernosum [1]: no direct relaxant effect | International Prostate Symptom Score (IPSS) and LUTS-specific quality of life (QoL) score [2]: overall improvement
